Measurements from patent US20220088016A1, “CANCER TREATMENT USING MULTI-TARGETED KINASE INHIBITOR IN COMBINATION OF PROTEIN KINASE BIOMARKERS” (ZHEJIANG CROWNMAB BIOTECH CO. LTD., priority 2019, published 2022).
Where two headings read alike, the source gives them in different places. Values belong to the molecule of their own block, whether it stands above or below them.

Key:
M-NFS-60 cells = test: Proliferation of M-NFS-60 cells (CTG assay); assay type: cell-based, mouse; conditions: M-NFS-60 (CSF-1 dependent), 3 days
Protocol: (§1) Two syngeneic cell lines M-NFS-60 and RAW264.7 and engineered BaF3 hCSFIR cell line were starved and then tested with CBT-102 and other test articles for 3 days in the temperature of 37° C., 5% CO2 and 95% humidity. The cell viability was then detected using CTG assay. The software of GraphPad Prism was used to calculate IC50.
(§2) CSF-1 dependent mouse myeloid M-NFS-60 cells were employed as target cells while a CSF-1 independent cell line Raw 264.7 was used as a negative control. In addition to CBT-102, the study also included 3 CSF-1R inhibitors: GW2580, BLZ945 and Pexidartinib.

RAW264.7 cells = test: Proliferation of RAW264.7 cells (CTG assay); assay type: cell-based; conditions: RAW264.7 (CSF-1 independent, negative control), 3 days
Protocol: as §1, §2

BaF3 hCSF1R cell line = test: Proliferation of engineered BaF3 hCSF1R cell line (CTG assay); assay type: cell-based
Protocol: as §1, §2

SMILES: CNC(=O)c1cc(Oc2ccc3nc(N[C@@H]4CCCC[C@H]4O)sc3c2)ccn1 [BLZ945]
Max inh. (M-NFS-60 cells): 99.08%
IC50 (M-NFS-60 cells; Mus musculus, 72 h): 3.02 µM
IC50 (RAW264.7 cells; Mus musculus, 72 h): > 30 µM
Max inh. (RAW264.7 cells): 24.65%

IC50 (BaF3 hCSF1R cell line; engineered BaF3 hCSF1R, 3 days, CTG, read-out: IC50): 0.279 µM
SMILES: COc1ccc(COc2ccc(Cc3cnc(N)nc3N)cc2OC)cc1 [GW2580]
IC50 (M-NFS-60 cells): 1.15 µM
Max inh. (M-NFS-60 cells): 99.02%
IC50 (RAW264.7 cells): 4.06 µM
Max inh. (RAW264.7 cells): 81.91%

SMILES: FC(F)(F)c1ccc(CNc2ccc(Cc3c[nH]c4ncc(Cl)cc34)cn2)cn1 [PLX3397]
Max inh. (M-NFS-60 cells): 99.32%
IC50 (M-NFS-60 cells; Mus musculus, 72 h): 0.348 µM
IC50 (RAW264.7 cells; Mus musculus, 72 h): 16.4 µM
Max inh. (RAW264.7 cells): 95.16%

SMILES: Cc1cc2cc(Oc3ccnc(Nc4cccc(CS(=O)(=O)NCCN(C)C)c4)n3)ccc2[nH]1 [sulfatinib]
IC50 (BaF3 hCSF1R cell line; Mus musculus, BaF3, 72 h): 1.33 µM
